Consider 42 compounds from patent US12421212B2, “Substituted benzenecarboxamides as IL-17A modulators” (DiCE Alpha, Inc., priority 2019, dated 2025).

One test addresses T1, IL-17A/A (Homo sapiens, UniProt Q16552).
T1 construct: purchased Genscript Z03228
T1 sequence (Q16552 24-155): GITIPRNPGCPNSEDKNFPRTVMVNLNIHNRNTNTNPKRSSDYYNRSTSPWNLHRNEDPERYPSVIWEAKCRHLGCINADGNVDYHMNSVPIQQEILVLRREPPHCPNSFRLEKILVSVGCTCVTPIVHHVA
Briefly: IL-17A/A HEK-Blue Cell Assay. In kind it is cell-based. Conditions: HEK-Blue IL-17A reporter cell line, SEAP readout at A630, 20 hours incubation with IL-17A/A; top concentration 10 uM, 1 uM or 0.3 uM.
Consider `CCC(=O)N[C@@H](C(=O)N1CCN(C(C)(C)O)CC1)[C@@H](C)c1ccc(NC(=O)[C@@H](NC(=O)c2ccnn2CC)[C@H]2CC[C@H](C)CC2)c(F)c1` [Compound 424], for which the “IL-17A/A inhibition (pIC50)” value is “B (8>B≥7 as B)”.

Consider `CCC(=O)N[C@@H](C(=O)N1C[C@H](C)N(C(C)C)[C@@H](C)C1)[C@@H](C)c1ccc(NC(=O)[C@@H](NC(=O)c2nonc2CC)[C@H]2CC[C@H](C)CC2)c(F)c1` [Compound 449], for which the “IL-17A/A inhibition (pIC50)” value was “A (compounds having a pIC50 of greater than or equal 8 as A)”.

Turning to `CCC(=O)N[C@H](Cc1ccc(NC(=O)[C@@H](NC(=O)c2nonc2CC)[C@H]2CC[C@H](C)CC2)c(F)c1)C(=O)N1CCN(C)[C@@H](C)C1` [Compound 462], the “IL-17A/A inhibition (pIC50)” value is recorded as “A (compounds having a pIC50 of greater than or equal 8 as A)”.

In the case of `CCC(=O)N[C@@H](C(=O)N1CCN(CC)C(C)(C)C1)[C@@H](C)c1ccc(NC(=O)[C@@H](NC(=O)c2nonc2CC)[C@H]2CC[C@H](C)CC2)c(F)c1` [Compound 466], the “IL-17A/A inhibition (pIC50)” value is reported as “A (compounds having a pIC50 of greater than or equal 8 as A)”.

The test is the same for the next values; noted with them: HEK-Blue IL-17A reporter cell line, SEAP readout at A630, 20 hours incubation with IL-17A/A; top concentration 10 uM, 1 uM or 0.3 uM; read-out: IL-17A/A inhibition (pIC50) (converted).
Turning to `CCC(=O)N[C@@H](C(=O)N1C[C@@H](C)N[C@@H](C)C1)[C@@H](C)c1ccc(NC(=O)[C@@H](NC(=O)c2ccnn2CC)[C@H]2CC[C@H](C)CC2)c(F)c1` [Compound 425], the IC50 was 10 to 100 nM.

On to `CCC(=O)N[C@@H](C(=O)N1CCN(CC)[C@H](C)C1)[C@@H](C)c1ccc(NC(=O)[C@@H](NC(=O)c2ccnn2CC)[C@H]2CC[C@H](C)CC2)c(F)c1` [Compound 426], for which the IC50 was under 10 nM.

Regarding `CCC(=O)N[C@@H](C(=O)N1CCN(CC)[C@@H](C)C1)[C@@H](C)c1ccc(NC(=O)[C@@H](NC(=O)c2ccnn2CC)[C@H]2CC[C@H](C)CC2)c(F)c1` [Compound 427], the IC50 is under 10 nM.

As for `CCn1nccc1C(=O)N[C@H](C(=O)Nc1ccc([C@H](C)[C@@H](NC(=O)c2cnns2)C(=O)N2CCN(CCO)CC2)cc1F)[C@H]1CC[C@H](C)CC1` [Compound 428], the IC50 was 10 to 100 nM.

Turning to `CCC(=O)N[C@@H](C(=O)N1CCN(C)C[C@@H]1C)[C@@H](C)c1ccc(NC(=O)[C@@H](NC(=O)c2ccnn2CC)[C@H]2CC[C@H](C)CC2)c(F)c1` [Compound 429], the IC50 was under 10 nM.

For the compound `CCC(=O)N[C@@H](C(=O)N1CCN(C)C[C@H]1C)[C@@H](C)c1ccc(NC(=O)[C@@H](NC(=O)c2ccnn2CC)[C@H]2CC[C@H](C)CC2)c(F)c1` [Compound 430], the IC50 was under 10 nM.

As to `CCC(=O)N[C@@H](C(=O)N1CCN(C)CC1(C)C)[C@@H](C)c1ccc(NC(=O)[C@@H](NC(=O)c2ccnn2CC)[C@H]2CC[C@H](C)CC2)c(F)c1` [Compound 431], the IC50 is under 10 nM.

As for `CCn1nccc1C(=O)N[C@H](C(=O)Nc1ccc([C@H](C)[C@@H](NC(=O)C(C)C2CC2)C(=O)N2CCN(C)C(C)(C)C2)cc1F)[C@H]1CC[C@H](C)CC1` (stereo partly drawn) [Compound 432], the IC50 is under 10 nM.

As to `CCn1nccc1C(=O)N[C@H](C(=O)Nc1ccc([C@H](C)[C@@H](NC(=O)C(C)C2CC2)C(=O)N2CCN(C)[C@@H](C)C2)cc1F)[C@H]1CC[C@H](C)CC1` (stereo partly drawn) [Compound 433], the IC50 is under 10 nM.

Take `CCn1nccc1C(=O)N[C@H](C(=O)Nc1ccc([C@H](C)[C@@H](NC(=O)C(C)C2CC2)C(=O)N2CCN(C)[C@H](C)C2)cc1F)[C@H]1CC[C@H](C)CC1` (stereo partly drawn) [Compound 434]: the IC50 was under 10 nM.

For the compound `CCC(=O)N[C@@H](C(=O)N1CCN(C)[C@@H](C)C1)[C@@H](C)c1ccc(NC(=O)[C@@H](NC(=O)c2ccnn2CC)[C@H]2CC[C@H](C)CC2)c(F)c1` [Compound 435], the IC50 is under 10 nM.

Consider `CCC(=O)N[C@@H](C(=O)N1CCN(C)[C@H](C)C1)[C@@H](C)c1ccc(NC(=O)[C@@H](NC(=O)c2ccnn2CC)[C@H]2CC[C@H](C)CC2)c(F)c1` [Compound 436], for which the IC50 is under 10 nM.

As for `CCC(=O)N[C@@H](C(=O)N1CCC(C)(OC)CC1)[C@@H](C)c1ccc(NC(=O)[C@@H](NC(=O)c2ccnn2CC)[C@H]2CC[C@H](C)CC2)c(F)c1` [Compound 437], the IC50 is under 10 nM.

In the case of `CCn1nccc1C(=O)N[C@H](C(=O)Nc1ccc([C@H](C)[C@@H](NC(=O)c2cnns2)C(=O)N2CCNC3(CC3)C2)cc1F)[C@H]1CC[C@H](C)CC1` [Compound 438], the IC50 is 10 to 100 nM.

For the compound `CCn1nccc1C(=O)N[C@H](C(=O)Nc1ccc([C@H](C)[C@@H](NC(=O)c2cnns2)C(=O)N2CCN(C)C3(CC3)C2)cc1F)[C@H]1CC[C@H](C)CC1` [Compound 439], the IC50 is 10 to 100 nM.

Turning to `CCn1nccc1C(=O)N[C@H](C(=O)Nc1ccc([C@H](C)[C@@H](NC(=O)c2cnns2)C(=O)N2CCC(C)(O)CC2)cc1F)[C@H]1CC[C@H](C)CC1` [Compound 440], the IC50 was under 10 nM.

For `CCn1nccc1C(=O)N[C@H](C(=O)Nc1ccc([C@H](C)[C@@H](NC(=O)c2cnns2)C(=O)N2CCN(Cc3ccccc3)CC2)cc1F)[C@H]1CC[C@H](C)CC1` [Compound 441], the IC50 was under 10 nM.

As for `CCn1nccc1C(=O)N[C@H](C(=O)Nc1ccc([C@H](C)[C@@H](NC(=O)c2conc2C2CCNCC2)C(=O)N2CCC(C)(O)CC2)cc1F)[C@H]1CC[C@H](C)CC1` [Compound 442], the IC50 was 10 to 100 nM.

Turning to `CCn1nccc1C(=O)N[C@H](C(=O)Nc1ccc([C@H](C)[C@@H](NC(=O)CC2CC2)C(=O)N2CCN(Cc3ccccc3)CC2)cc1F)[C@H]1CC[C@H](C)CC1` [Compound 443], the IC50 is under 10 nM.

On to `CCC(=O)N[C@@H](C(=O)N1CCNC2(CC2)C1)[C@@H](C)c1ccc(NC(=O)[C@@H](NC(=O)c2nonc2CC)[C@H]2CC[C@H](C)CC2)c(F)c1` [Compound 444], for which the IC50 is 10 to 100 nM.

As for `CCC(=O)N[C@@H](C(=O)N1CCN(CCO)CC1)[C@@H](C)c1ccc(NC(=O)[C@@H](NC(=O)c2nonc2CC)[C@H]2CC[C@H](C)CC2)c(F)c1` [Compound 445], the IC50 was 10 to 100 nM.

In the case of `CCC(=O)N[C@@H](C(=O)N1CC(C(C)(C)O)C1)[C@@H](C)c1ccc(NC(=O)[C@@H](NC(=O)c2nonc2CC)[C@H]2CC[C@H](C)CC2)c(F)c1` [Compound 446], the IC50 was under 10 nM.

For the compound `CCC(=O)N[C@@H](C(=O)N1C[C@@H](C)N[C@@H](C)C1)[C@@H](C)c1ccc(NC(=O)[C@@H](NC(=O)c2nonc2CC)[C@H]2CC[C@H](C)CC2)c(F)c1` [Compound 447], the IC50 is 10 to 100 nM.

Consider `CCC(=O)N[C@@H](C(=O)N1C[C@H](C)N(C(=O)CC)[C@@H](C)C1)[C@@H](C)c1ccc(NC(=O)[C@@H](NC(=O)c2nonc2CC)[C@H]2CC[C@H](C)CC2)c(F)c1` [Compound 448], for which the IC50 is under 10 nM.

With `CCC(=O)N[C@@H](C(=O)N1CCN(Cc2ccccn2)CC1)[C@@H](C)c1ccc(NC(=O)[C@@H](NC(=O)c2nonc2CC)[C@H]2CC[C@H](C)CC2)c(F)c1` [Compound 450], the IC50 was under 10 nM.

With `CCC(=O)N[C@@H](C(=O)N1C[C@@H](C)N(C)[C@H](C)C1)[C@@H](C)c1ccc(NC(=O)[C@@H](NC(=O)c2nonc2CC)[C@H]2CC[C@H](C)CC2)c(F)c1` [Compound 451], the IC50 is under 10 nM.

On to `CCC(=O)N[C@@H](C(=O)N1C[C@@H](C)N(C)[C@@H](C)C1)[C@@H](C)c1ccc(NC(=O)[C@@H](NC(=O)c2nonc2CC)[C@H]2CC[C@H](C)CC2)c(F)c1` [Compound 452], for which the IC50 is under 10 nM.

For `CCC(=O)N[C@@H](C(=O)N1CCN[C@H](C)C1)[C@@H](C)c1ccc(NC(=O)[C@@H](NC(=O)c2nonc2CC)[C@H]2CC[C@H](C)CC2)c(F)c1` [Compound 454], the IC50 was 100 to 10000 nM.

As for `CCC(=O)N[C@@H](C(=O)N(C)Cc1cncn1C)[C@@H](C)c1ccc(NC(=O)[C@@H](NC(=O)c2nonc2CC)[C@H]2CC[C@H](C)CC2)c(F)c1` [Compound 455], the IC50 was 100 to 10000 nM.

As for `CCC(=O)N[C@@H](C(=O)N1CCN(C)C[C@@H]1C)[C@@H](C)c1ccc(NC(=O)[C@@H](NC(=O)c2nonc2CC)[C@H]2CC[C@H](C)CC2)c(F)c1` [Compound 456], the IC50 was under 10 nM.

Turning to `CCC(=O)N[C@@H](C(=O)N1CCN(C)C[C@H]1C)[C@@H](C)c1ccc(NC(=O)[C@@H](NC(=O)c2nonc2CC)[C@H]2CC[C@H](C)CC2)c(F)c1` [Compound 457], the IC50 was under 10 nM.

Regarding `CCC(=O)N[C@@H](C(=O)N1CCN(C)CC1(C)C)[C@@H](C)c1ccc(NC(=O)[C@@H](NC(=O)c2nonc2CC)[C@H]2CC[C@H](C)CC2)c(F)c1` [Compound 458], the IC50 is under 10 nM.

Take `CCC(=O)N[C@@H](C(=O)N1CCN(C)[C@@H](C)C1)[C@@H](C)c1ccc(NC(=O)[C@@H](NC(=O)c2nonc2CC)[C@H]2CC[C@H](C)CC2)c(F)c1` [Compound 460]: the IC50 was under 10 nM.

`CCC(=O)N[C@@H](C(=O)N1CCN(C)C(C)(C)C1)[C@@H](C)c1ccc(NC(=O)[C@@H](NC(=O)c2nonc2CC)[C@H]2CC[C@H](C)CC2)c(F)c1` [Compound 464]: the IC50 is under 10 nM.

`CCC(=O)N[C@@H](C(=O)N1CCN(CC)[C@@H](C)C1)[C@@H](C)c1ccc(NC(=O)[C@@H](NC(=O)c2nonc2CC)[C@H]2CC[C@H](C)CC2)c(F)c1` [Compound 467]: the IC50 is under 10 nM.

`CCC(=O)N[C@@H](C(=O)N1CCC(F)(F)CC1)[C@@H](C)c1ccc(NC(=O)[C@@H](NC(=O)c2nonc2CC)[C@H]2CC[C@H](C)CC2)c(F)c1` [Compound 468]: the IC50 is 10 to 100 nM.

As for `CCn1nccc1C(=O)N[C@H](C(=O)Nc1ccc([C@H](C)[C@@H](NC(=O)C2CC2)C(=O)N2CCN(C)CC2)cc1F)[C@H]1CC[C@H](C)CC1` [Compound 469], the IC50 is 10 to 100 nM.

On to `CCn1nccc1C(=O)N[C@H](C(=O)Nc1ccc([C@H](C)[C@@H](NC(=O)[C@@H](C)F)C(=O)N2CCN(C)CC2)cc1F)[C@H]1CC[C@H](C)CC1` [Compound 470], for which the IC50 is 10 to 100 nM.
